#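 Results reflect a 48-hour exposure of cells in 96-well plates to compound at five concentrations. GI50 = concentration required for 50% inhibition of growth.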 The source made the active and inactive calls. Cut-off read from the data, not from the text of the source: active = GI50 up to about 1.1 µM and inactive = higher.
# Assays:
# Assay in all cases: inhibition of tumour cell growth, NCI panel, 48 h
# HCC 2998 = tested on: HCC 2998
# RXF 393 = tested on: RXF 393
# SNB-19 = tested on: SNB-19
# SR = tested on: SR
# Hs-578T = tested on: Hs-578T
# IGROV-1 = tested on: IGROV-1
# UACC-257 = tested on: UACC-257
# MDA-MB-231 = tested on: MDA-MB-231
# DU-145 = tested on: DU-145
# KM-20L2 = tested on: KM-20L2
# OVCAR-4 = tested on: OVCAR-4
# CCRF-CEM = tested on: CCRF-CEM
# Malme-3M = tested on: Malme-3M
# HCT-15 = tested on: HCT-15
# SK-MEL-5 = tested on: SK-MEL-5
# LOX IMVI = tested on: LOX IMVI
# T47D = tested on: T47D
# OVCAR-5 = tested on: OVCAR-5
# ACHN = tested on: ACHN
# RXF 631 = tested on: RXF 631
# HT-29 = tested on: HT-29
# MOLT-4 = tested on: MOLT-4
# NCI-H226 = tested on: NCI-H226
# UO-31 = tested on: UO-31
# M14 = tested on: M14
# M19-MEL = tested on: M19-MEL
# HOP-92 = tested on: HOP-92
# PC-3 = tested on: PC-3
# SF-268 = tested on: SF-268
# SF-295 = tested on: SF-295
# LXFL 529 = tested on: LXFL 529
# RPMI-8226 = tested on: RPMI-8226
# MCF7 = tested on: MCF7
# OVCAR-3 = tested on: OVCAR-3
# NCI/ADR-RES = tested on: NCI/ADR-RES
# HOP-18 = tested on: HOP-18
# BT-549 = tested on: BT-549
# NCI-H460 = tested on: NCI-H460
# COLO 205 = tested on: COLO 205
# TK-10 = tested on: TK-10
# SK-MEL-28 = tested on: SK-MEL-28
# MDA-N = tested on: MDA-N
# SK-OV-3 = tested on: SK-OV-3
# A549 = tested on: A549
# KM12 = tested on: KM12
# HL-60 = tested on: HL-60
# DMS-114 = tested on: DMS-114
# K562 = tested on: K562
# 786-0 = tested on: 786-0
# SNB-78 = tested on: SNB-78
# MDA-MB-435 = tested on: MDA-MB-435
# SNB-75 = tested on: SNB-75
# SN12C = tested on: SN12C
# A498 = tested on: A498
# EKVX = tested on: EKVX
# CAKI-1 = tested on: CAKI-1
# NCI-H23 = tested on: NCI-H23
# OVCAR-8 = tested on: OVCAR-8
# XF498 = tested on: XF498
# DLD-1 = tested on: DLD-1
# SW-620 = tested on: SW-620
# U-251 = tested on: U-251
# DMS-273 = tested on: DMS-273
# HOP-62 = tested on: HOP-62
# HCT-116 = tested on: HCT-116
# SK-MEL-2 = tested on: SK-MEL-2
# SF-539 = tested on: SF-539
# UACC-62 = tested on: UACC-62
smiles,measurement,setting,value
CCC1(O)C(=O)OCc2c1cc1n(c2=O)Cc2cc3ccc(C=O)cc3nc2-1 (stereo not drawn),GI50,HCC 2998,4620 nM (inactive)
same,GI50,RXF 393,2200 nM (inactive)
same,GI50,SNB-19,2040 nM (inactive)
same,GI50,SR,< 13 nM (active)
same,GI50,Hs-578T,17800 nM (inactive)
same,GI50,IGROV-1,8090 nM (inactive)
same,GI50,UACC-257,6190 nM (inactive)
same,GI50,MDA-MB-231,22400 nM (inactive)
same,GI50,DU-145,466 nM (active)
same,GI50,KM-20L2,5680 nM (inactive)
same,GI50,OVCAR-4,3330 nM (inactive)
same,GI50,CCRF-CEM,43.1 nM (active)
same,GI50,Malme-3M,4330 nM (inactive)
same,GI50,HCT-15,6080 nM
same,GI50,SK-MEL-5,1830 nM (inactive)
same,GI50,LOX IMVI,472 nM (active)
same,GI50,T47D,655 nM (active)
same,GI50,OVCAR-5,7290 nM (inactive)
same,GI50,ACHN,713 nM (active)
same,GI50,RXF 631,2380 nM (inactive)
same,GI50,HT-29,4900 nM (inactive)
same,GI50,MOLT-4,132 nM (active)
same,GI50,NCI-H226,1580 nM (inactive)
same,GI50,UO-31,1830 nM (inactive)
same,GI50,M14,1120 nM (active)
same,GI50,M19-MEL,2890 nM (inactive)
same,GI50,HOP-92,11100 nM (inactive)
same,GI50,PC-3,5530 nM (inactive)
same,GI50,SF-268,321 nM (active)
same,GI50,SF-295,3230 nM (inactive)
same,GI50,LXFL 529,12800 nM (inactive)
same,GI50,RPMI-8226,2790 nM (inactive)
same,GI50,MCF7,335 nM (active)
same,GI50,OVCAR-3,4510 nM (inactive)
same,GI50,NCI/ADR-RES,574 nM (active)
same,GI50,HOP-18,3470 nM (inactive)
same,GI50,BT-549,2280 nM (inactive)
same,GI50,NCI-H460,493 nM (active)
same,GI50,COLO 205,9080 nM (inactive)
same,GI50,TK-10,54300 nM (inactive)
same,GI50,SK-MEL-28,27100 nM (inactive)
same,GI50,MDA-N,5560 nM (inactive)
same,GI50,SK-OV-3,2200 nM (inactive)
same,GI50,A549,2130 nM (inactive)
same,GI50,KM12,> 86500 nM (inactive)
same,GI50,HL-60,1360 nM (inactive)
same,GI50,DMS-114,607 nM (active)
same,GI50,K562,1910 nM (inactive)
same,GI50,786-0,608 nM (active)
same,GI50,SNB-78,19900 nM (inactive)
same,GI50,MDA-MB-435,7180 nM (inactive)
same,GI50,SNB-75,1360 nM (inactive)
same,GI50,SN12C,387 nM (active)
same,GI50,A498,4060 nM (inactive)
same,GI50,EKVX,19100 nM (inactive)
same,GI50,CAKI-1,1730 nM (inactive)
same,GI50,NCI-H23,2070 nM (inactive)
same,GI50,OVCAR-8,1960 nM (inactive)
same,GI50,XF498,2700 nM (inactive)
same,GI50,DLD-1,12400 nM (inactive)
same,GI50,SW-620,1030 nM (active)
same,GI50,U-251,637 nM (active)
same,GI50,DMS-273,484 nM (active)
same,GI50,HOP-62,294 nM (active)
same,GI50,HCT-116,1340 nM (inactive)
same,GI50,SK-MEL-2,13400 nM (inactive)
same,GI50,SF-539,551 nM (active)
same,GI50,UACC-62,566 nM (active)

# Reference: ChEMBL document CHEMBL1201862, “PubChem BioAssay data set” (2004)
